# According to PMC10178848, “Modulating fast skeletal muscle contraction protects skeletal muscle in animal models of Duchenne muscular dystrophy” (The Journal of Clinical Investigation, 2023):
# Test system: mdx mouse EDL muscle
# Assay: Phosphoprotein array analysis (Cell Signaling Phospho Antibody Array)
# Protocol: mdx mouse EDL muscle was prepared for ex vivo analysis as described (n = 5). Muscles were incubated for 1 hour with DMSO or EDG-5506 (5 μM) and then flash frozen in liquid nitrogen. Tissue preparation and analysis were performed as recommended by the manufacturer (Cell Signaling Phospho Antibody Array, Full Moon Biosystems).
compound,measurement,setting,value
O=c1ccc(-c2cnc(OCC(F)(F)F)nc2)nn1Cc1cncc(F)c1 [EDG-5506],Fold Change T/C: PPAR-gamma (Ab-112),"5 μM, 1 hour",1.49
same,Fold Change T/C: PPAR-gamma (Phospho-Ser112),"5 μM, 1 hour",1.26
same,Fold Change T/C: PTEN (Ab-380),"5 μM, 1 hour",1.13
same,Fold Change T/C: Raf1 (Ab-43),"5 μM, 1 hour",0.90
same,Fold Change T/C: Rb (Ab-807),"5 μM, 1 hour",2.11
same,Fold Change T/C: Rb (Phospho-Ser807),"5 μM, 1 hour",0.91
same,Fold Change T/C: RelB (Phospho-Ser552),"5 μM, 1 hour",0.76
same,Fold Change T/C: SAPK/JNK (Phospho-Tyr185),"5 μM, 1 hour",0.84
same,Fold Change T/C: SHP-2 (Phospho-Tyr542),"5 μM, 1 hour",0.91
same,Fold Change T/C: SRF (Ab-99),"5 μM, 1 hour",1.97
same,Fold Change T/C: STAT3 (Ab-705),"5 μM, 1 hour",1.05
same,Fold Change T/C: STAT3 (Phospho-Tyr705),"5 μM, 1 hour",0.92
same,Fold Change T/C: STAT4 (Phospho-Tyr693),"5 μM, 1 hour",1.04
same,Fold Change T/C: STAT5A (Ab-780),"5 μM, 1 hour",0.86
same,Fold Change T/C: STAT6 (Ab-645),"5 μM, 1 hour",1.12
same,Fold Change T/C: STAT6 (Phospho-Thr645),"5 μM, 1 hour",0.89
same,Fold Change T/C: SYK (Ab-525),"5 μM, 1 hour",0.99
same,Fold Change T/C: SYK (Phospho-Tyr348),"5 μM, 1 hour",0.91
same,Fold Change T/C: Shc (Ab-349),"5 μM, 1 hour",0.62
same,Fold Change T/C: Smad1 (Ab-465),"5 μM, 1 hour",0.82
same,Fold Change T/C: Smad1 (Phospho-Ser187),"5 μM, 1 hour",1.60
same,Fold Change T/C: Smad2 (Ab-255),"5 μM, 1 hour",2.57
same,Fold Change T/C: Smad2 (Phospho-Ser467),"5 μM, 1 hour",1.00
same,Fold Change T/C: Smad2/3 (Phospho-Thr8),"5 μM, 1 hour",1.25
same,Fold Change T/C: Smad3 (Ab-425),"5 μM, 1 hour",0.52
same,Fold Change T/C: Smad3 (Phospho-Ser213),"5 μM, 1 hour",1.26
same,Fold Change T/C: Src (Ab-418),"5 μM, 1 hour",1.70
same,Fold Change T/C: Src (Phospho-Tyr418),"5 μM, 1 hour",0.77
same,Fold Change T/C: TGFBR2 (Ab-250),"5 μM, 1 hour",0.90
same,Fold Change T/C: Tau (Ab-235),"5 μM, 1 hour",1.98
same,Fold Change T/C: Tau (Phospho-Ser396),"5 μM, 1 hour",0.90
same,Fold Change T/C: Trk B (Ab-515),"5 μM, 1 hour",1.53
same,Fold Change T/C: Tubulin-b,"5 μM, 1 hour",1.09
same,Fold Change T/C: VASP (Ab-157),"5 μM, 1 hour",1.26
same,Fold Change T/C: VEGFR2 (Ab-1214),"5 μM, 1 hour",1.07
same,Fold Change T/C: VEGFR2 (Phospho-Tyr1175),"5 μM, 1 hour",0.84
same,Fold Change T/C: Zap-70 (Ab-319),"5 μM, 1 hour",1.12
same,Fold Change T/C: Zap-70 (Phospho-Tyr319),"5 μM, 1 hour",1.04
same,Fold Change T/C: c-Abl (Ab-412),"5 μM, 1 hour",0.93
same,Fold Change T/C: c-Jun (Ab-243),"5 μM, 1 hour",1.03
same,Fold Change T/C: c-Jun (Phospho-Ser73),"5 μM, 1 hour",0.91
same,Fold Change T/C: eEF2K (Ab-366),"5 μM, 1 hour",2.10
same,Fold Change T/C: eIF2A (Ab-51),"5 μM, 1 hour",0.86
same,Fold Change T/C: eNOS (Ab-1179),"5 μM, 1 hour",0.92
same,Fold Change T/C: p44/42 MAP Kinase (Phospho-Tyr204),"5 μM, 1 hour",0.88
same,Fold Change T/C: p53 (Ab-315),"5 μM, 1 hour",1.69
same,Fold Change T/C: p53 (Phospho-Ser15),"5 μM, 1 hour",0.20
same,"changes in implicated signaling pathways (Akt, IGF1, LTBP4/TGF-β)","5 μM, 1 hour",no consistent changes in implicated pathways
same,Average Signal of Replicate Spots: 4E-BP1 (Phospho-Thr45),4000031744 (T),3952
same,Average Signal of Replicate Spots: 14-3-3 theta/tau (Phospho-Ser232),4000031744 (T),1343
same,Average Signal of Replicate Spots: ACC1 (Phospho-Ser80),4000031744 (T),1068
same,Average Signal of Replicate Spots: AMPKbeta1 (Phospho-Ser182),4000031744 (T),1111
same,Average Signal of Replicate Spots: B-RAF (Phospho-Ser446),4000031744 (T),1461
same,Average Signal of Replicate Spots: BAX (Phospho-Thr167),4000031744 (T),923
same,Average Signal of Replicate Spots: BCL-XL (Phospho-Ser62),4000031744 (T),3298
same,Average Signal of Replicate Spots: BLNK (Phospho-Tyr96),4000031744 (T),811
same,Average Signal of Replicate Spots: CBL (Phospho-Tyr700),4000031744 (T),1571
same,Average Signal of Replicate Spots: CDK1/CDC2 (Phospho-Tyr15),4000031744 (T),1071
same,Average Signal of Replicate Spots: CREB (Phospho-Ser133),4000031744 (T),971
same,Average Signal of Replicate Spots: CaMK2-beta/gamma/delta (Phospho-Thr287),4000031744 (T),1442
same,Average Signal of Replicate Spots: CaMK2A (Phospho-Thr286),4000031744 (T),1017
same,Average Signal of Replicate Spots: Caspase 8 (Phospho-Ser347),4000031744 (T),1275
same,Average Signal of Replicate Spots: Caspase 9 (Phospho-Ser196),4000031744 (T),3581
same,Average Signal of Replicate Spots: Catenin beta (Phospho-Thr41/Ser45),4000031744 (T),1080
same,Average Signal of Replicate Spots: Chk2 (Phospho-Thr68),4000031744 (T),787
same,Average Signal of Replicate Spots: Cyclin D1 (Phospho-Thr286),4000031744 (T),2969
same,Average Signal of Replicate Spots: Cyclin E1 (Phospho-Thr77),4000031744 (T),1889
same,Average Signal of Replicate Spots: DARPP-32 (Phospho-Thr34),4000031744 (T),1112
same,Average Signal of Replicate Spots: EEF2 (Phospho-Thr56),4000031744 (T),1593
same,Average Signal of Replicate Spots: FADD (Phospho-Ser194),4000031744 (T),2520
same,Average Signal of Replicate Spots: FAK (Phospho-Ser910),4000031744 (T),1946
same,Average Signal of Replicate Spots: FGFR1 (Phospho-Tyr654),4000031744 (T),2920
same,Average Signal of Replicate Spots: GRK2 (Phospho-Ser29),4000031744 (T),1817
same,Average Signal of Replicate Spots: GSK3 alpha/beta (Phospho-Tyr216/279),4000031744 (T),1223
same,Average Signal of Replicate Spots: Gab2 (Phospho-Tyr643),4000031744 (T),5234
same,Average Signal of Replicate Spots: HDAC1 (Phospho-Ser421),4000031744 (T),1842
same,Average Signal of Replicate Spots: HDAC2 (Phospho-Ser394),4000031744 (T),1737
same,Average Signal of Replicate Spots: HSP90B (Phospho-Ser226),4000031744 (T),2514
same,Average Signal of Replicate Spots: IKK-beta (Phospho-Tyr188),4000031744 (T),1332
same,Average Signal of Replicate Spots: IKK-beta (Phospho-Tyr199),4000031744 (T),1363
same,Average Signal of Replicate Spots: IKK-gamma (Phospho-Ser31),4000031744 (T),1172
same,Average Signal of Replicate Spots: IL-4R/CD124 (Phospho-Tyr497),4000031744 (T),1616
same,Average Signal of Replicate Spots: IL-10R-alpha (Phospho-Tyr496),4000031744 (T),1513
same,Average Signal of Replicate Spots: IkB-alpha (Phospho-Ser32/36),4000031744 (T),10513
same,Average Signal of Replicate Spots: Integrin beta-3 (Phospho-Tyr773),4000031744 (T),1072
same,Average Signal of Replicate Spots: JunB (Phospho-Ser259),4000031744 (T),1085
same,Average Signal of Replicate Spots: LYN (Phospho-Tyr507),4000031744 (T),1395
same,Average Signal of Replicate Spots: Lamin A/C (Phospho-Ser392),4000031744 (T),969
same,Average Signal of Replicate Spots: MEK1 (Phospho-Ser217),4000031744 (T),790
same,Average Signal of Replicate Spots: NFkB-p65 (Phospho-Ser311),4000031744 (T),1154
same,Average Signal of Replicate Spots: NFkB-p100/p52 (Phospho-Ser865),4000031744 (T),1360
same,Average Signal of Replicate Spots: P38 MAPK (Phospho-Thr180/Tyr182),4000031744 (T),2391
same,Average Signal of Replicate Spots: P70S6K (Phospho-Ser424),4000031744 (T),1169
same,Average Signal of Replicate Spots: P90RSK (Phospho-Thr359/Ser363),4000031744 (T),1665
same,Average Signal of Replicate Spots: PDK1 (Phospho-Ser241),4000031744 (T),2037
same,Average Signal of Replicate Spots: PLCG1 (Phospho-Tyr783),4000031744 (T),8981
same,Average Signal of Replicate Spots: PLK1 (Phospho-Thr210),4000031744 (T),732
same,Average Signal of Replicate Spots: PP2A-alpha (Phospho-Tyr307),4000031744 (T),1166
same,Average Signal of Replicate Spots: PPAR-gamma (Phospho-Ser112),4000031744 (T),1480
same,Average Signal of Replicate Spots: Rb (Phospho-Ser807),4000031744 (T),1194
same,Average Signal of Replicate Spots: RelB (Phospho-Ser552),4000031744 (T),3212
same,Average Signal of Replicate Spots: SAPK/JNK (Phospho-Tyr185),4000031744 (T),1041
same,Average Signal of Replicate Spots: SHP-2 (Phospho-Tyr542),4000031744 (T),1268
same,Average Signal of Replicate Spots: STAT3 (Phospho-Tyr705),4000031744 (T),1079
same,Average Signal of Replicate Spots: STAT4 (Phospho-Tyr693),4000031744 (T),52519
same,Average Signal of Replicate Spots: STAT6 (Phospho-Thr645),4000031744 (T),1124
same,Average Signal of Replicate Spots: SYK (Phospho-Tyr348),4000031744 (T),1249
same,Average Signal of Replicate Spots: Smad1 (Phospho-Ser187),4000031744 (T),2057
same,Average Signal of Replicate Spots: Smad2 (Phospho-Ser467),4000031744 (T),1265
same,Average Signal of Replicate Spots: Smad2/3 (Phospho-Thr8),4000031744 (T),2539
same,Average Signal of Replicate Spots: Smad3 (Phospho-Ser213),4000031744 (T),1879
same,Average Signal of Replicate Spots: Src (Phospho-Tyr418),4000031744 (T),10867
same,Average Signal of Replicate Spots: Tau (Phospho-Ser396),4000031744 (T),1057
same,Average Signal of Replicate Spots: VEGFR2 (Phospho-Tyr1175),4000031744 (T),1051
same,Average Signal of Replicate Spots: Zap-70 (Phospho-Tyr319),4000031744 (T),1504
same,Average Signal of Replicate Spots: c-Jun (Phospho-Ser73),4000031744 (T),1180
same,Average Signal of Replicate Spots: p44/42 MAP Kinase (Phospho-Tyr204),4000031744 (T),1035
same,Average Signal of Replicate Spots: p53 (Phospho-Ser15),4000031744 (T),1903
same,Data Normalized to Median Signal: 4E-BP1 (Phospho-Thr45),4000031744 (T),3.29
same,Data Normalized to Median Signal: 14-3-3 theta/tau (Phospho-Ser232),4000031744 (T),1.12
same,Data Normalized to Median Signal: ACC1 (Phospho-Ser80),4000031744 (T),0.89
same,Data Normalized to Median Signal: AMPKbeta1 (Phospho-Ser182),4000031744 (T),0.93
same,Data Normalized to Median Signal: B-RAF (Phospho-Ser446),4000031744 (T),1.22
same,Data Normalized to Median Signal: BCL-XL (Phospho-Ser62),4000031744 (T),2.75
same,Data Normalized to Median Signal: BLNK (Phospho-Tyr96),4000031744 (T),0.68
same,Data Normalized to Median Signal: CBL (Phospho-Tyr700),4000031744 (T),1.31
